Values of other authors as cited in patent publication US20090269405A1, “ENZYME MEDIATED DELIVERY SYSTEM” (Appian Labs, LLC, priority 2008, published 2009).
Like-named read-outs stand apart in the source and are kept apart here.

How the values were obtained:
[1] = chronic oral, 100 mg bid

patients who developed abdominal aortic aneurysms [1] | Structure (SMILES) | onset of musculoskeletal toxicity (severe events) (25 mg daily) | onset of musculoskeletal toxicity (severe events) (75 mg twice daily)
five out of 33 | C[C@H]1c2cccc(O)c2C(=O)C2=C(O)[C@]3(O)C(=O)C(C(N)=O)=C(O)[C@@H](N(C)C)[C@@H]3[C@@H](O)[C@@H]21 [doxycycline] | – | –
– | CNC(=O)[C@@H](NC(=O)[C@H](CC(C)C)[C@H](O)C(=O)NO)C(C)(C)C [Marimastat] | 199 days | 56 days
